Assay results reported in patent US6458823B1, “Diaminopyrazoles” (Wyeth, priority 1998, dated 2002).
Where a name gives a salt, the structure may show the parent alone.

Legend:
[1] = test system: hypertrophied bladder (detrusor) smooth muscle; assay: Inhibition of spontaneous contractions in vivo, hypertrophied rat bladder model (cystometry); set-up: species or system Female Sprague-Dawley rats; settings: 10 mg/kg p.o., cystometry one hour after dosing
Protocol: In addition, we tested the ability of compounds to inhibit the hyperactivity of hypertrophied bladder (detrusor) smooth muscle in conscious female rats with hypertrophied bladders and thereby alleviate urinary incontinence in rats according to the following protocol described by Malmgren et al. (J. Urol. 1989, 142, 1134.):
Female Sprague-Dawley rats, ranging in weight from 190-210 g are used. Up to 25 animals are prepared each time. After development of bladder hypertrophy 4-8 animals are used per test.
Compounds are dissolved in PEG-200 and administered by gastric gavage or intravenously in a volume of 5 mL/kg. For primary screening all drugs are administered at the arbitrary dose of 10 mg/kg p.o. to groups of 4 rats.
The animals are anesthetized with halothane. Through a midline incision the bladder and urethra are exposed and a ligature of 4-0 silk is tied around the proximal urethra in the presence of a stainless steel rod (1 mm diameter) to produce a partial occlusion. […] The following urodynamic variables are recorded: […]
The mean value of each variable is calculated before and after compound administration. For each compound the changes in the variables measured are compared to the values obtained before treatment and expressed as percent inhibition. The data are also subjected to 2-way analysis of variance to determine significant (p<0.05) changes in the variable measured. […]

[2] = test system: Isolated Rat Bladder Strips; assay: Inhibition of contractions in isolated rat bladder strips (KCl-enhanced contractile activity); set-up: species or system Sprague-Dawley rats; settings: 0.5 h, 15 mM KCl added, contractile activity measured in last minute of 30 minute challenge
Protocol: Sprague-Dawley rats (150-200 g) are rendered unconscious by CO2 asphyxiation and then euthanized by cervical dislocation. The bladder is removed into warm (37° C.) physiological salt solution (PSS) of the following composition (mM): NaCl, 118.4; KCI, 4.7; CaCl2, 2.5; MgSO4, […]; NaHCO3, 24.9; KH2PO4, 1.2; glucose, 11.1; EDTA, 0.023; gassed with […]; pH 7.4. The bladder is opened and then cut into strips 1-2 mm in width and 7-10 nmm in length. The strips are subsequently suspended in a 10 mL tissue bath under an initial resting tension of 1.5 g. The strips are held in place by two surgical clips one of which is attached to a fixed hook while the other is attached to an isometric force transducer. […] The carbachol is then washed out and the tissue allowed to relax to its resting level of activity. Following a further 30 min period of recovery an additional 15 mM KCl are introduced into the tissue bath. This increase in KCl concentration results in a large increase in the amplitude of spontaneous contractions (and initiation of contractions in previously quiescent strips) superimposed upon a small increase in basal tone. Following stabilization of this enhanced level of contractile activity, incremental increases in the concentration of test compound or vehicle are introduced into the tissue bath. Contractile activity is measured for each compound or vehicle concentration during the last minute of a 30 minute challenge.
The isometric force developed by the bladder strips is measured using a […] to elicit 50% inhibition of pre-drug contractile activity (IC50 concentration) and is calculated from this concentration-response curve.

Row | SMILES | melting point [°C] | % Red (F): percent reduction in the total number of spontaneous contractions [1] [%] | IC50 [2] [µM]
1 | Cc1nn(C)c(NCC(C)(C)C)c1NCc1ccc(C#N)cc1 (as salt: tosylate) [Example 2, 4-{[5-(2,2-Dimethyl-propylamino)-1,3-dimethyl-1H-pyrazol-4-ylamino]-methyl}-benzonitrile] | 102 to 104 | – | –
2 | Cc1nn(C)c(NCC(C)(C)C)c1NCc1ccncc1 [Example 1, N(3)-(2,2-Dimethyl-propyl)-2,5-dimethyl-N(4)-pyridin-4-ylmethyl-2H-pyrazole-3,4-diamine] | 88 to 90 | −36 ± 7 | 4.9
3 | Cc1nn(C)c(NCC(C)(C)C)c1NCc1ccc(C#N)cc1 [Example 2, 4-{[5-(2,2-Dimethyl-propylamino)-1,3-dimethyl-1H-pyrazol-4-ylamino]-methyl}-benzonitrile] | – | – | 8.26
4 | Cc1nn(C)c(NCC(C)(C)C)c1NCc1ccc(F)cc1 [Example 3, N(3)-(2,2-Dimethyl-propyl)-N(4)-(4-fluoro-benzyl)-2,5-dimethyl-2H-pyrazole-3,4-diamine] | 32 to 39 | – | 11.5
5 | Cc1nn(C)c(NCC(C)(C)C)c1NCc1ccc(Cl)cc1Cl [Example 4, N(4)-(2,4-Dichloro-benzyl)-N(3)-(2,2-dimethyl-propyl)-2,5-dimethyl-2H-pyrazole-3,4-diamine] | – | – | 11.8
6 | CCC(C)(C)CNc1c(NCc2ccc(C#N)cc2)c(C)nn1C [Example 5, 4-{[5-(2,2-Dimethyl-butylamino)-1,3-dimethyl-1H-pyrazol-4-ylamino]-methyl}-benzonitrile] | – | – | 12.6
7 | Cc1nn(C)c(NCC(C)(C)C)c1NCc1ccc(F)cc1F [Example 6, N(4)-(2,4-Difluoro-benzyl)-N(3)-(2,2-dimethyl-propyl)-2,5-dimethyl-2H-pyrazole-3,4-diamine] | – | – | 13.5
8 | Cc1nn(C)c(NCC(C)(C)C)c1NCc1cccnc1 [Example 7, N(3)-(2,2-Dimethyl-propyl)-2,5-dimethyl-N(4)-pyridin-3-ylmethyl-2H-pyrazole-3,4-diamine] | – | – | 15.4
9 | Cc1cc(C)c(CNc2c(C)nn(C)c2NCC(C)(C)C)c(C)c1 [Example 8, N(3)-(2,2-Dimethyl-propyl)-2,5-dimethyl-N(4)-(2,4,6-trimethyl-benzyl)-2H-pyrazole-3,4-diamine] | 114 to 120 | – | 17.8
10 | CCC(C)(C)CNc1c(NCc2ccncc2)c(C)nn1C [Example 9, N(3)-(2,2-Dimethyl-butyl)-2,5-dimethyl-N(4)-pyridin-4-ylmethyl-2H-pyrazole-3,4-diamine] | – | – | 19.2
11 | CCC(C)(C)CNc1c(NCc2ccccc2)c(C)nn1C [Example 10, N(4)-Benzyl-N(3)-(2,2-dimethyl-butyl)-2,5-dimethyl-2H-pyrazole-3,4-diamine] | – | – | 19.9
12 | Cc1nn(C)c(NCC(C)(C)C)c1Nc1ccccc1 [Example 11, N(3)-(2,2-Dimethyl-propyl)-2,5-dimethyl-N(4)-phenyl-2H-pyrazole-3,4-diamine] | – | – | 4.3
13 | Cc1cc(Cl)ccc1Nc1c(C)nn(C)c1NCC(C)(C)C [Example 12, N(4)-(4-Chloro-2-methyl-phenyl)-N(3)-(2,2-dimethyl-propyl)-2,5-dimethyl-2H-pyrazole-3,4-diamine] | – | – | 12.5
14 | Cc1nn(C)c(NCC(C)(C)C)c1Nc1ccc(C#N)cc1 [Example 13, 4-[5-(2,2-Dimethyl-propylamino)-1,3-dimethyl-1H-pyrazol-4-ylamino]-benzonitrile] | 131 to 134 | – | 17.9
15 | Cc1nn(C)c(NCC(C)(C)C)c1Nc1ccc(Cl)cc1 [Example 14, N(4)-(4-Chloro-phenyl)-N(3)-(2,2-dimethyl-propyl)-2,5-dimethyl-2H-pyrazole-3,4-diamine] | – | – | 22.9
